Test results as given in patent US6737383B1, “Herbicidal oxadiazolidines” (priority 1999, dated 2004).

Experiments:
sugar beet = assay: Test B pre/postemergence sugar beet; type: in vivo, Beta vulgaris; details: Preemergence
Summary of the method: (§1)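 Response is a visual 0-to-10 score relative to untreated plants, where 0 means no effect and 10 means complete control, taken twelve to sixteen days after application. Treatments went onto soil at planting and onto foliage of 1- to 4-leaf plants, using a surfactant-containing non-phytotoxic solvent.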

velvetleaf = assay: Test B pre/postemergence velvetleaf; type: in vivo, Abutilon theophrasti; details: Preemergence
Summary of the method: as §1

rice = assay: Test B flood test rice; type: in vivo, Oryza sativa
Summary of the method: (§2)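 Plants were grown to the 2-leaf stage before treatment with test chemical, then held in a greenhouse for twelve to sixteen days. Injury was visually rated against untreated controls on a 0–10 scale, where 0 is no effect and 10 is complete control.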

morningglory = assay: Test B pre/postemergence morningglory; type: in vivo, Ipomoea hederacea
Summary of the method: as §1

wild oat = assay: Test B pre/postemergence wild oat; type: in vivo, Avena fatua; details: Preemergence
Summary of the method: as §1

bedstraw = assay: Test B pre/postemergence bedstraw; type: in vivo, Galium aparine
Summary of the method: as §1

bamyardgrass = assay: Test B flood test barnyardgrass; type: in vivo, Echinochloa crus-galli
Summary of the method: as §2

wheat = assay: Test B pre/postemergence wheat; type: in vivo, Triticum aestivum; details: Preemergence
Summary of the method: as §1

soybean = assay: Test B pre/postemergence soybean; type: in vivo, Glycine max; details: Preemergence
Summary of the method: as §1

blackgrass = assay: Test B pre/postemergence blackgrass; type: in vivo, Alopecurus myosuroides
Summary of the method: as §1

corn = assay: Test B pre/postemergence corn; type: in vivo, Zea mays
Summary of the method: as §1

duck salad = assay: Test B flood test duck salad; type: in vivo, Heteranthera limosa
Summary of the method: as §2

surinam grass = assay: Test B pre/postemergence surinam grass; type: in vivo, Brachiaria decumbens
Summary of the method: as §1

purple nutsedge = assay: Test B pre/postemergence purple nutsedge; type: in vivo, Cyperus rotundus; details: Postemergence
Summary of the method: as §1

cocklebur = assay: Test B pre/postemergence cocklebur; type: in vivo, Xanthium strumarium
Summary of the method: as §1

giant foxtail = assay: Test B pre/postemergence giant foxtail; type: in vivo, Setaria faberii
Summary of the method: as §1

rape = assay: Test B pre/postemergence rape; type: in vivo, Brassica napus
Summary of the method: as §1

smallflower flatsedge = assay: Test B flood test smallflower flatsedge; type: in vivo, Cyperus difformis
Summary of the method: as §2

crabgrass = assay: Test B pre/postemergence crabgrass; type: in vivo, Digitaria sanguinalis
Summary of the method: as §1

pigweed = assay: Test B pre/postemergence pigweed; type: in vivo, Amaranthus retroflexus
Summary of the method: as §1

[1] = Rate 31 g/ha, visual rating, scale 0 to 10 (0 no effect, 10 complete control)
[2] = Rate 62 g/ha, scale of 0 to 10 where 0 is no effect and 10 is complete control
[3] = Rate 250 g/ha, scale of 0 to 10 where 0 is no effect and 10 is complete control
[4] = Rate 125 g/ha, scale of 0 to 10 where 0 is no effect and 10 is complete control
[5] = Rate 62 g/ha, headed Pre-emergence (flood test species), scale 0 to 10 (0 no effect, 10 complete control)
[6] = Rate 125 g/ha, Pre-emergence, flood test species, scale 0 to 10 where 0 is no effect and 10 is complete control
[7] = Rate 250 g/ha, Pre-emergence, flood-test species, scale 0 to 10, 0 is no effect, 10 is complete control
[8] = Rate 500 g/ha, Pre-emergence, flood test species, scale 0 to 10 (0 no effect, 10 complete control)
[9] = Preemergence, Rate 31 g/ha, visual rating, scale 0 to 10 (0 no effect, 10 complete control)
[10] = Preemergence, Rate 62 g/ha, scale of 0 to 10 where 0 is no effect and 10 is complete control
[11] = Preemergence, Rate 250 g/ha, scale of 0 to 10 where 0 is no effect and 10 is complete control
[12] = Rate 31 g/ha, Postemergence, scale 0 to 10
[13] = Rate 125 g/ha, Preemergence, scale of 0 to 10 where 0 is no effect and 10 is complete control
[14] = Rate 62 g/ha, Postemergence, scale of 0 to 10 where 0 is no effect and 10 is complete control
[15] = Rate 125 g/ha, Postemergence, scale 0 to 10

CC(C)N(C(=O)n1oc(=O)n(CCc2ccccc2)c1=O)c1ccc(F)cc1 [Compound 250]
3: Plant response rating (0 to 10; 0 is no effect, 10 is complete control), Rape (rape; Rate 250 g/ha, Postemergence) | Redroot pigweed plant response rating (pigweed; [11]) | Redroot pigweed plant response rating (pigweed; [13])
10: Giant foxtail plant response rating (giant foxtail; [11])
7: Giant foxtail plant response rating (giant foxtail; [9])
4: Morningglory plant response rating (morningglory; [12]) | Ducksalad plant response rating (duck salad; [8]) | Crabgrass plant response rating (crabgrass; [13])
2: Plant response rating (0 to 10; 0 is no effect, 10 is complete control), Blackgrass (blackgrass; Rate 250 g/ha, Postemergence) | Crabgrass plant response rating (crabgrass; [10])
8: Giant foxtail plant response rating (giant foxtail; [10]) | Giant foxtail plant response rating (giant foxtail; [13]) | Crabgrass plant response rating (crabgrass; [11])
6: Plant response rating (0 to 10; 0 is no effect, 10 is complete control), Morningglory (morningglory; Rate 250 g/ha, Postemergence)
9: Plant response rating (0 to 10; 0 is no effect, 10 is complete control), Bedstraw (bedstraw; Rate 250 g/ha, Postemergence)
0: Sugarbeets plant response rating (sugar beet; [1]) | Sugarbeets plant response rating (sugar beet; [2]) | Sugarbeets plant response rating (sugar beet; [4]) | Velvetleaf plant response rating (velvetleaf; [1]) | Velvetleaf plant response rating (velvetleaf; [2]) | Velvetleaf plant response rating (velvetleaf; [3]) | Velvetleaf plant response rating (velvetleaf; [4]) | Rice plant response rating (rice; [5]) | Rice plant response rating (rice; [6]) | Rice plant response rating (rice; [7]) | Rice plant response rating (rice; [8]) | Morningglory plant response rating (morningglory; [9]) | Morningglory plant response rating (morningglory; [10]) | Morningglory plant response rating (morningglory; [11]) | Morningglory plant response rating (morningglory; [13]) | Wild oats plant response rating (wild oat; [1]) | Wild oats plant response rating (wild oat; [2]) | Wild oats plant response rating (wild oat; [3]) | Wild oats plant response rating (wild oat; [4]) | Bedstraw plant response rating (bedstraw; [9]) | Bedstraw plant response rating (bedstraw; [10]) | Bedstraw plant response rating (bedstraw; [11]) | Bedstraw plant response rating (bedstraw; [12]) | Bedstraw plant response rating (bedstraw; [14]) | Bedstraw plant response rating (bedstraw; [15]) | Bedstraw plant response rating (bedstraw; [13]) | Barnyardgrass plant response rating (bamyardgrass; [5]) | Barnyardgrass plant response rating (bamyardgrass; [6]) | Barnyardgrass plant response rating (bamyardgrass; [7]) | Barnyardgrass plant response rating (bamyardgrass; [8]) | Wheat plant response rating (wheat; [1]) | Wheat plant response rating (wheat; [2]) | Wheat plant response rating (wheat; [3]) | Wheat plant response rating (wheat; [4]) | Soybean plant response rating (soybean; [1]) | Soybean plant response rating (soybean; [2]) | Soybean plant response rating (soybean; [3]) | Soybean plant response rating (soybean; [4]) | Blackgrass plant response rating (blackgrass; [9]) | Blackgrass plant response rating (blackgrass; [10]) | Blackgrass plant response rating (blackgrass; [11]) | Blackgrass plant response rating (blackgrass; [12]) | Blackgrass plant response rating (blackgrass; [14]) | Blackgrass plant response rating (blackgrass; [15]) | Blackgrass plant response rating (blackgrass; [13]) | Corn plant response rating (corn; [9]) | Corn plant response rating (corn; [10]) | Corn plant response rating (corn; [11]) | Corn plant response rating (corn; [12]) | Corn plant response rating (corn; [14]) | Corn plant response rating (corn; [15]) | Corn plant response rating (corn; [13]) | Plant response rating (0 to 10; 0 is no effect, 10 is complete control), Corn (corn; Rate 250 g/ha, Postemergence) | Ducksalad plant response rating (duck salad; [5]) | Ducksalad plant response rating (duck salad; [6]) | Ducksalad plant response rating (duck salad; [7]) | B. signalgrass plant response rating (surinam grass; [9]) | B. signalgrass plant response rating (surinam grass; [10]) | B. signalgrass plant response rating (surinam grass; [11]) | B. signalgrass plant response rating (surinam grass; [12]) | B. signalgrass plant response rating (surinam grass; [14]) | B. signalgrass plant response rating (surinam grass; Rate 125 g/ha, Postemergence, scale 0 (no effect) to 10 (complete control)) | B. signalgrass plant response rating (surinam grass; [13]) | Plant response rating (0 to 10; 0 is no effect, 10 is complete control), B. signalgrass (surinam grass; Rate 250 g/ha, Postemergence) | Nutsedge plant response rating (purple nutsedge; Rate 31 g/ha, scale 0 to 10) | Plant response rating (0 to 10; 0 is no effect, 10 is complete control), Nutsedge (purple nutsedge; Rate 250 g/ha) | Cocklebur plant response rating (cocklebur; [9]) | Cocklebur plant response rating (cocklebur; [10]) | Cocklebur plant response rating (cocklebur; [11]) | Cocklebur plant response rating (cocklebur; [12]) | Cocklebur plant response rating (cocklebur; [14]) | Cocklebur plant response rating (cocklebur; [15]) | Cocklebur plant response rating (cocklebur; [13]) | Giant foxtail plant response rating (giant foxtail; [12]) | Plant response rating (0 to 10; 0 is no effect, 10 is complete control), Giant foxtail (giant foxtail; Rate 250 g/ha, Postemergence) | Rape plant response rating (rape; [9]) | Rape plant response rating (rape; [10]) | Rape plant response rating (rape; [11]) | Rape plant response rating (rape; [12]) | Rape plant response rating (rape; [13]) | S. Flatsedge plant response rating (smallflower flatsedge; [5]) | S. Flatsedge plant response rating (smallflower flatsedge; [6]) | S. Flatsedge plant response rating (smallflower flatsedge; [7]) | S. Flatsedge plant response rating (smallflower flatsedge; [8]) | Crabgrass plant response rating (crabgrass; [9]) | Crabgrass plant response rating (crabgrass; [12]) | Plant response rating (0 to 10; 0 is no effect, 10 is complete control), Crabgrass (crabgrass; Rate 250 g/ha, Postemergence) | Redroot pigweed plant response rating (pigweed; [9]) | Redroot pigweed plant response rating (pigweed; [10]) | Redroot pigweed plant response rating (pigweed; [12]) | Plant response rating (0 to 10; 0 is no effect, 10 is complete control), Redroot pigweed (pigweed; Rate 250 g/ha, Postemergence)
5: Sugarbeets plant response rating (sugar beet; [3])
1: Plant response rating (0 to 10; 0 is no effect, 10 is complete control), Cocklebur (cocklebur; Rate 250 g/ha, Postemergence)
